Legend:
Assay type in all cases: ADME, cell-based; call rule not given here
[1] = tested on: CCRF S-180; assay: Cellular uptake in mouse S180 cells after 30 mins; settings: ccrf s-180, 0.5 h
[2] = tested on: CCRF S-180; assay: Cellular uptake in mouse S180 cells after 60 mins; settings: ccrf s-180, 1 h
[3] = tested on: CCRF S-180; assay: Cellular uptake in mouse S180 cells relative to [18F]FDG

Row | SMILES | Drug uptake [1] | Drug uptake [2] | Drug uptake [3]
1 | O=C[C@H]([18F])[C@@H](O)[C@H](O)[C@H](O)CO | Active | 9% | –
2 | N[C@@H](Cc1ccc(OCC[18F])cc1)C(=O)O [FLORETYROSINE F18] | – | 9% | < 7%
